PubChem BioAssay AID2060340 (Molecular Pharmacology Branch, DTP, NCI, 2025)

Tested on: 349418-098-R-PDC spheroids, viability, % test/control
Assay: Anticancer human tumor 349418-098-R-PDC patient-derived lung adenocarcinoma cell line growth inhibition [IpAb]
Details: spheroids with HUVEC and MSC; for IC50: curve of first compound; for viability, T/C: stronger effect = lower value
Outline: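 Spheroids of 60% malignant cells, 25% HUVEC and 15% MSC were exposed to targeted agents combined with ipatasertib or abemaciclib. Doses started at or near clinical Cmax (10 microM when unknown) and fell in half-log steps.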

[1] = second compound 0.01 µM, first compound 0.0316 µM
[2] = second compound 0.01 µM, first compound 0.1 µM
[3] = second compound 0.01 µM, first compound 0.316 µM
[4] = second compound 0.01 µM, first compound 1 µM
[5] = second compound 0.01 µM, first compound 3.16 µM
[6] = second compound 0.01 µM, first compound 10 µM
[7] = second compound 0.0316 µM, first compound 0.0316 µM
[8] = second compound 0.0316 µM, first compound 0.1 µM
[9] = second compound 0.0316 µM, first compound 0.316 µM
[10] = second compound 0.0316 µM, first compound 1 µM
[11] = second compound 0.0316 µM, first compound 3.16 µM
[12] = second compound 0.0316 µM, first compound 10 µM
[13] = second compound 0.1 µM, first compound 0.0316 µM
[14] = second compound 0.1 µM, first compound 0.1 µM
[15] = second compound 0.1 µM, first compound 0.316 µM
[16] = second compound 0.1 µM, first compound 1 µM
[17] = second compound 0.1 µM, first compound 3.16 µM
[18] = second compound 0.1 µM, first compound 10 µM
[19] = second compound 0.316 µM, first compound 0.0316 µM
[20] = second compound 0.316 µM, first compound 0.1 µM
[21] = second compound 0.316 µM, first compound 0.316 µM
[22] = second compound 0.316 µM, first compound 1 µM
[23] = second compound 0.316 µM, first compound 3.16 µM
[24] = second compound 0.316 µM, first compound 10 µM
[25] = second compound 1 µM, first compound 0.0316 µM
[26] = second compound 1 µM, first compound 0.1 µM
[27] = second compound 1 µM, first compound 0.316 µM
[28] = second compound 1 µM, first compound 1 µM
[29] = second compound 1 µM, first compound 3.16 µM
[30] = second compound 1 µM, first compound 10 µM

## C=CC(=O)N1CCN(c2nc(=O)n(-c3c(C)ccnc3C(C)C)c3nc(-c4c(O)cccc4F)c(F)cc23)C(C)C1 (stereo not given) + CCN1CCN(Cc2ccc(Nc3ncc(F)c(-c4cc(F)c5nc(C)n(C(C)C)c5c4)n3)nc2)CC1
Second compound 0.01 µM
  IC50: 4630 nM
Second compound 0.0316 µM
  IC50: 124 nM
Second compound 0.1 µM
  IC50: < 31.6 nM
Second compound 0.316 µM
  IC50: < 31.6 nM
Second compound 1 µM
  IC50: < 31.6 nM
[1]
  viability, T/C: 90.2%
[2]
  viability, T/C: 82.9%
[3]
  viability, T/C: 82.8%
[4]
  viability, T/C: 87.1%
[5]
  viability, T/C: 57.2%
[6]
  viability, T/C: 35.5%
[7]
  viability, T/C: 58.9%
[8]
  viability, T/C: 47.8%
[9]
  viability, T/C: 43.2%
[10]
  viability, T/C: 41.2%
[11]
  viability, T/C: 35.1%
[12]
  viability, T/C: 20.5%
[13]
  viability, T/C: 33.9%
[14]
  viability, T/C: 28.7%
[15]
  viability, T/C: 31.4%
[16]
  viability, T/C: 29.6%
[17]
  viability, T/C: 23.3%
[18]
  viability, T/C: 13.2%
[19]
  viability, T/C: 19.7%
[20]
  viability, T/C: 22%
[21]
  viability, T/C: 22.1%
[22]
  viability, T/C: 21.2%
[23]
  viability, T/C: 18.1%
[24]
  viability, T/C: 14.1%
[25]
  viability, T/C: 19.3%
[26]
  viability, T/C: 21.5%
[27]
  viability, T/C: 20.9%
[28]
  viability, T/C: 16%
[29]
  viability, T/C: 19.2%
[30]
  viability, T/C: 10.9%

## Cn1ncc(Cl)c1-c1cc(C(=O)NC(CN)Cc2cccc(F)c2)sc1Cl (stereo not given) + CCN1CCN(Cc2ccc(Nc3ncc(F)c(-c4cc(F)c5nc(C)n(C(C)C)c5c4)n3)nc2)CC1
Second compound 0.01 µM
  IC50: 49.8 nM
Second compound 0.0316 µM
  IC50: < 31.6 nM
Second compound 0.1 µM
  IC50: < 31.6 nM
Second compound 0.316 µM
  IC50: < 31.6 nM
Second compound 1 µM
  IC50: < 31.6 nM
[1]
  viability, T/C: 63.1%
[2]
  viability, T/C: 28.6%
[3]
  viability, T/C: 17.1%
[4]
  viability, T/C: 9.53%
[5]
  viability, T/C: 6.15%
[6]
  viability, T/C: 0.1%
[7]
  viability, T/C: 36.9%
[8]
  viability, T/C: 18.1%
[9]
  viability, T/C: 9.18%
[10]
  viability, T/C: 7.63%
[11]
  viability, T/C: 5.83%
[12]
  viability, T/C: 0.14%
[13]
  viability, T/C: 21.3%
[14]
  viability, T/C: 12.5%
[15]
  viability, T/C: 8.7%
[16]
  viability, T/C: 6.91%
[17]
  viability, T/C: 5.88%
[18]
  viability, T/C: 0.09%
[19]
  viability, T/C: 16%
[20]
  viability, T/C: 12.5%
[21]
  viability, T/C: 8.98%
[22]
  viability, T/C: 6.46%
[23]
  viability, T/C: 4.96%
[24]
  viability, T/C: 0.19%
[25]
  viability, T/C: 14%
[26]
  viability, T/C: 11.7%
[27]
  viability, T/C: 9.07%
[28]
  viability, T/C: 8.54%
[29]
  viability, T/C: 3.59%
[30]
  viability, T/C: 0.24%

## Cn1ncnc1[C@H]1c2n[nH]c(=O)c3cc(F)cc(c23)N[C@@H]1c1ccc(F)cc1 + CCN1CCN(Cc2ccc(Nc3ncc(F)c(-c4cc(F)c5nc(C)n(C(C)C)c5c4)n3)nc2)CC1
Second compound 0.01 µM
  IC50: 54.1 nM
Second compound 0.0316 µM
  IC50: < 0.316 nM
Second compound 0.1 µM
  IC50: < 0.316 nM
Second compound 0.316 µM
  IC50: < 0.316 nM
Second compound 1 µM
  IC50: < 0.316 nM
Second compound 0.01 µM, first compound 0.000316 µM
  viability, T/C: 70.5%
Second compound 0.01 µM, first compound 0.001 µM
  viability, T/C: 67.8%
Second compound 0.01 µM, first compound 0.00316 µM
  viability, T/C: 73.1%
Second compound 0.01 µM, first compound 0.01 µM
  viability, T/C: 64%
[1]
  viability, T/C: 55.2%
[2]
  viability, T/C: 44.5%
Second compound 0.0316 µM, first compound 0.000316 µM
  viability, T/C: 38.7%
Second compound 0.0316 µM, first compound 0.001 µM
  viability, T/C: 50.5%
Second compound 0.0316 µM, first compound 0.00316 µM
  viability, T/C: 52.7%
Second compound 0.0316 µM, first compound 0.01 µM
  viability, T/C: 36%
[7]
  viability, T/C: 36.5%
[8]
  viability, T/C: 25.2%
Second compound 0.1 µM, first compound 0.000316 µM
  viability, T/C: 28.1%
Second compound 0.1 µM, first compound 0.001 µM
  viability, T/C: 22.9%
Second compound 0.1 µM, first compound 0.00316 µM
  viability, T/C: 23.9%
Second compound 0.1 µM, first compound 0.01 µM
  viability, T/C: 23.2%
[13]
  viability, T/C: 17.5%
[14]
  viability, T/C: 16.4%
Second compound 0.316 µM, first compound 0.000316 µM
  viability, T/C: 14.6%
Second compound 0.316 µM, first compound 0.001 µM
  viability, T/C: 19.8%
Second compound 0.316 µM, first compound 0.00316 µM
  viability, T/C: 16.2%
Second compound 0.316 µM, first compound 0.01 µM
  viability, T/C: 17.8%
[19]
  viability, T/C: 16.9%
[20]
  viability, T/C: 13.1%
Second compound 1 µM, first compound 0.000316 µM
  viability, T/C: 16.2%
Second compound 1 µM, first compound 0.001 µM
  viability, T/C: 17.6%
Second compound 1 µM, first compound 0.00316 µM
  viability, T/C: 16.2%
Second compound 1 µM, first compound 0.01 µM
  viability, T/C: 13%
[25]
  viability, T/C: 14.9%
[26]
  viability, T/C: 12.8%
